Assay results reported in patent CN115504972A, “异恶唑类衍生物、其制备方法及其作为药物的用途” (Guangdong Pharmaceutical University, priority 2021, dated 2022).

How the values were obtained:
[1] = system: non-alcoholic fatty liver model mice (非酒精性脂肪肝模型小鼠); experiment: Improvement of non-alcoholic fatty liver in NASH model mice (Western diet + CCl4), HE staining of liver; assay type: in vivo, C57BL/6 mouse; conditions: 10 mg/kg, gavage, once daily, 4 weeks; compared with obeticholic acid 20 mg/kg
FXR receptor (FXR受体) = molecular target: T1, FXR receptor (FXR受体) (Homo sapiens, UniProt Q96RI1); conditions: cited from earlier work
T1 sequence (Q96RI1 1-486): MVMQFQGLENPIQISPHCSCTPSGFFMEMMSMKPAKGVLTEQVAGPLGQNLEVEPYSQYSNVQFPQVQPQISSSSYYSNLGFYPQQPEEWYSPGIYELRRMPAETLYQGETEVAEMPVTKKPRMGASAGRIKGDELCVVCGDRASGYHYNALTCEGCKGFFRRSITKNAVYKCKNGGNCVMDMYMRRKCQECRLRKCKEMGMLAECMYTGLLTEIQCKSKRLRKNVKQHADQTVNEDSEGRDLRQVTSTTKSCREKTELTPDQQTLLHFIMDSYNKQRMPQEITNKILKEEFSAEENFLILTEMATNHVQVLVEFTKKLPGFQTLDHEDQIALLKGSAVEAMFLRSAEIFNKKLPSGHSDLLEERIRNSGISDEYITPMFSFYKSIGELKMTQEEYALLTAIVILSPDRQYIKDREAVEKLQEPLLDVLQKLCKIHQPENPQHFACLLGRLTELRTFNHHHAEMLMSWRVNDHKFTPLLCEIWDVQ

[2] = system: non-alcoholic fatty liver disease (非酒精性脂肪性肝病(NAFLD)); conditions: phase IIa clinical study; cited from earlier work
[3] = system: non-alcoholic hepatitis (非酒精性肝炎(NASH)); conditions: phase IIb study, 72 weeks of treatment; cited from earlier work
[4] = phase III clinical study; cited from earlier work
[5] = clinical studies; cited from earlier work

| Compound | ballooning [1] | degree of hepatic steatosis [1] | improvement of non-alcoholic fatty liver [1] | inflammatory infiltration [1] | FXR receptor agonist activity compared with the endogenous ligand CDCA (FXR receptor (FXR受体)) | insulin sensitivity [2] | other metabolic effects [2] | histopathology of NASH [3] | liver fibrosis, histological features of steatohepatitis and liver biochemical indicators [4] | side effects [5] |
| --- | --- | --- | --- | --- | --- | --- | --- | --- | --- | --- |
| CC(C)c1onc(-c2ccccc2OC(F)(F)F)c1CN1CCC(COc2ccc(C(=O)O)cc2)CC1 [I-9, 4-(1-(5-异丙基-3-(2-三氟甲氧基苯基)异恶唑-4-甲基)哌啶-4-甲氧基)苯甲酸] | 得到更明显的改善 | 得到更明显的改善 | 明显优于奥贝胆酸 | 得到更明显的改善 | – | – | – | – | – | – |
| CC[C@H]1[C@@H](O)[C@@H]2[C@H](CC[C@]3(C)[C@@H]([C@H](C)CCC(=O)O)CC[C@@H]23)[C@@]2(C)CC[C@@H](O)C[C@@H]12 [奥贝胆酸] | – | – | – | – | 比内源性配体CDCA活性更高 | 有显著改善 | 有益作用 | 对非酒精性肝炎(NASH)的组织病理学的改进也有益 | 可以改善肝纤维化、脂肪性肝炎的组织学特征以及肝脏的生化指标 | 严重的瘙痒、肝毒性、心血管风险等副作用 |
